Here are results for 2 molecules from paper PMC8101618, “Comparable Initial Engagement of Intracellular Signaling Pathways by Parathyroid Hormone Receptor Ligands Teriparatide, Abaloparatide, and Long‐Acting PTH” (JBMR Plus, 2021).

The subject of one experiment is SIK. Particulars: cultured osteocytes and in vivo; cited from earlier work. The source says:
Although it is well‐established that PTH‐mediated increases in bone formation require actions in osteocytes,^( ^19 , ^23 ^) the signaling events downstream of the PTH1R in osteocytes have remained elusive. We recently described a new signaling pathway that relays information from the PTH1R to the nucleus in osteocytes.^( ^24 ^) A crucial step in this cascade involves cyclic AMP (cAMP)‐mediated inhibition of salt inducible kinase 2 (SIK2). Importantly, PTH1R‐induced SIK2 phosphorylation/inactivation occurs rapidly (within 1 min of receptor engagement by hPTH (1‐34)) and then diminishes.^( ^24 ^ ...

Another experiment has as its system HDAC4 S246, HDAC5 S259. Put plainly: HDAC4/5 phosphorylation immunoblotting in Ocy454 cells. Type of experiment: cell-based, murine. To be noted: 10nM, 1 hour (Supplementary Fig. S1). How it is done:
For immunoblotting, cells were prepared as described.^( ^37 ^) Whole cell lysates were prepared using TNT (Tris‐NaCl‐Tween buffer, 20mM Tris‐HCl pH 8, 200mM NaCl, 0.5% Triton X‐100 containing protease inhibitor [PI], 1mM NaF, 1mM dithiothreitol [DTT], 1mM vanadate). Adherent cells were washed with ice cold PBS, then scraped into TNT buffer on ice. Material was then transferred into Eppendorf tubes kept on ice, vortexed at top speed for 30 s, then centrifuged at 14,000g for 6 min at 4°C. For immunoblotting, lysates or immunoprecipitates were separated by SDS‐PAGE and proteins were transferred to nitrocellulose. […] The next day, membranes were washed, incubated with appropriate horseradish peroxidase (HRP)‐coupled secondary antibodies, and signals were detected with ECL Western Blotting Substrate (Pierce, Rockford, IL, USA), ECL Plus Western Blotting Substrate (Pierce), or SuperSignal West Femto Maximum Sensitivity Substrate (Thermo Scientific, Waltham, MA, USA). […] Quantification was performed using ImageJ.
In cells, SIKs are constitutively active kinases due to upstream LKB1 activation loop phosphorylation,^( ^45 ^) and therefore constitutively phosphorylate their substrates. […] We assessed the effects of different PTH ligands on class IIa HDAC and CRTC phosphorylation at well‐documented SIK phosphorylation sites: HDAC4 S246, HDAC5 S259, and CRTC2 S275. […]
For orientation: Immunoblotting shows a protein as a band on a membrane.

A further experiment relates to human PTH1R. Put plainly: β-arrestin2-YFP clustering in GBR-24 cells. Type of experiment: cell-based. Particulars: TMR-labeled ligands 30nM, 15 min, room temperature; β-arrestin2-YFP HEK293 cells (GBR-24) transiently transfected with human PTH1R. How it is done: Recruitment of β‐arrestin was assessed in HEK293 cells stably transfected to express β‐arrestin2‐YFP^( ^36 ^) and glosensor (GBR‐24 cells)^( ^34 ^) and transiently transfected to express the hPTH1R or mDsRed‐hPTH1R in which the monomeric Discosoma sp. red fluorescent protein is inserted in the E2 region of the receptor's extracellular domain. Cells were treated with each PTH1R ligand and imaged by fluorescent microscopy as described above (see 2.4 Internalization). The quantification of colocalizations between β‐arrestin2YFP and TMR‐ligands were performed by ImageJ software (NIH, Bethesda, MD, USA; https://imagej.nih.gov/ij/) using Just Another Colocalization Plugin (JACoP) and indicated as cytofluorograms.
Recruitment of the intracellular scaffolding proteins β‐arrrestin1/2 is a well‐characterized step that occurs following activation and GRK‐dependent phosphorylation in multiple G‐Protein‐Coupled Receptors (GPCRs) signaling systems.^( ^39 ^) β‐arrestin recruitment is traditionally thought to lead to signal termination due to receptor internalization. […] For this, HEK293 cells stably expressing YFP‐tagged β‐arrestin2 (GBR‐24 cells) were transiently transfected with human PTH1R cDNA, then treated with TMR‐labeled PTH ligands at 30nM for 15 min at room temperature. Thereafter, cells were rinsed, fixed, and viewed by epifluorescent microscopy.

The next experiment deals with PTH1R. To be noted: cited from earlier work. The source says: Recruitment of the intracellular scaffolding proteins β‐arrrestin1/2 is a well‐characterized step that occurs following activation and GRK‐dependent phosphorylation in multiple G‐Protein‐Coupled Receptors (GPCRs) signaling systems.^( ^39 ^) β‐arrestin recruitment is traditionally thought to lead to signal termination due to receptor internalization.

In experiment [1] the test system is human PTH1R-pHluorin2-GFP. Put plainly: internalization using GFP^pHs fluorescence (GPG-10 cells). Format: cell-based. To be noted: continuous treatment 90 min, range of doses; ratio 485/405 nm excitation, emission 535 nm; pH 7.4; n = 6 independent experiments. How it is done: Receptor internalization was assessed in the HEK293 cell line stably transfected with human PTH1R‐pHluorin2‐GFP (GPG‐10 cells).^( ^33 , ^34 ^) Confluent monolayers of cells in black‐walled, 96‐well plates were incubated in HBSS with BSA (0.1% wt/vol) and HEPES buffer (pH 7.4, 10mM). Peptides were added and wells were analyzed by recording fluorescence readouts with excitation at 485 or 405 nm and emission at 535 nm. Data were analyzed as a ratio of fluorescence intensity following excitation at 485/405 nm over the course of 90 min, and the area under the curve (AUC) values for each time course were plotted as a function of ligand concentration.
A complementary approach was used to visualize ligand‐dependent colocalization of PTH1R and β‐arrestin2. For this, β‐arrestin2‐YFP–expressing cells were transiently transduced with a plasmid encoding a dsRed‐tagged version of human PTH1R. […] In that study, multiple ligand concentrations were used and the responses were assessed at the peak response time, which was generally ~5 min after ligand addition.^( ^42 ^) To explore differences in receptor internalization in more detail, we used constructs where the PTH receptor is fused to a pH‐sensitive GFP variant (GFP^pHs) which changes its fluorescent signal in acidic endosomes. […]

Consider `COc1ccc(N2C(=O)N(c3c(C)cccc3Cl)Cc3cnc(Nc4ccc(C5CCN(C)CC5)cc4OC)nc32)nc1` [YKL‐05‐099], for which the PTH-mimicking action entry in the experiment with SIK was “mimic PTH action in cultured osteocytes and in vivo”.
Regarding “LNleHQLdWKWIQDARRRAWLHKLIAEIHTAEI.NH2 [PTH (7‐36), N‐truncated LA‐PTH analog used as a negative control]”, in the experiment on HDAC4 S246, HDAC5 S259, the “SIK substrate phosphorylation and gene expression changes” value is “completely inactive”. The β-arrestin2 clustering/recruitment result in the experiment with human PTH1R is “fails to stimulate β‐arrestin2 recruitment”. Moreover, in the experiment with PTH1R, the “intracellular signaling or PTH1R internalization” value was “does not induce intracellular signaling or PTH1R internalization”. Further, the “PTH1R internalization (AUC of GFP^pHs fluorescence ratio)” value in experiment [1] was “internalization‐deficient”.
